In EP0381422B1, “Tetrahydrobenzimidazole derivatives” (YAMANOUCHI PHARMACEUTICAL CO. LTD., priority 1989, dated 1990):

System: 5-HT3 receptor
Experiment: Antagonism against 5-HT3-receptor: inhibition of serotonin-induced Bezold-Jarish (BJ) reflex in anesthetized rats
Assay type: in vivo, Wistar male rats
Method: Antagonism Against 5-HT3-Receptor
Nine-week-old Wistar male rats were anesthetized by intravenous injection of 1 g/kg of urethane, and blood pressure and heart rate were measured under artificial respiration. Transient reduction in heart rate and blood pressure induced by intravenous administration of serotonin or 2-methylserotonin which is a selective agonist of 5-HT3 was taken as an index of the reaction via 5-HT3 receptor [Bezold-Jarish reflex; Paintal, A.S., Pysiolo. Rev., Vol. 53, p.
Inhibitory activity of compounds of the present invention on serotonin-induced Bezold-Jarish (BJ) reflex in rats is shown in Table 1.

Row | Compound | BJ Reflex Inhibitory Activity (ED50; µg/kg, i.v.) [µg/kg]
1 | O=C(C1CCc2nc[nH]c2C1)N1CCc2ccccc21.O=C(O)/C=C/C(=O)O (centres unmarked) [Example 2, 5-[(2,3-Dihydroindol-1-yl)carbonyl]-4,5,6,7-tetrahydrobenzimidazole fumarate] | 0.29
2 | O=C(C1CCc2nc[nH]c2C1)n1c(=O)[nH]c2ccccc21 (centres unmarked) [Example 9, 1-[(4,5,6,7-tetrahydrobenzimidazol-5-yl)carbonyl]-2,3-dihydrobenzimidazol-2-one] | 0.80
